{"source": "patent US8906921B2", "about": "“4-alkoxypyridazine derivatives as fast dissociating dopamine 2 receptor antagonists” (Janssen Pharmaceutica NV, priority 2007, dated 2014)", "note": "Structures can show the parent of a compound that is named as a salt.", "data": [{"smiles": "COc1cc(Cl)nnc1NC1CCN(Cc2cc(F)cc(C(F)(F)F)c2)CC1", "values": [{"measurement": "melting point", "result": 121.5, "unit": "°C"}]}, {"smiles": "COc1cc(Cl)nnc1NC1CCN(Cc2ccc(F)c(F)c2)CC1", "values": [{"measurement": "melting point", "result": 130.5, "unit": "°C"}]}, {"smiles": "COc1cc(Cl)nnc1NC1CCN(Cc2cc(F)c(F)c(F)c2)CC1", "values": [{"measurement": "melting point", "result": 150.7, "unit": "°C"}]}, {"smiles": "COc1cc(C(F)(F)F)nnc1NC1CCN(Cc2cccc(C(F)(F)F)c2)CC1", "note": "(as salt: hydrochloride)", "values": [{"measurement": "melting point", "result": 211.3, "unit": "°C"}]}]}
